# Experimental data published in US20250122174A1 (Shenzhen Yuanli Shenwan Innovative Medicine Co., Ltd., priority 2022, published 2025).
# Target: HPK1 (Homo sapiens (Human), UniProt Q92918)
# Assay: HPK1 Inhibition Assay (ADP-Glo kinase assay)
# Type: biochemical
# Conditions: ATP 10 μM
# How it was run: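 ADP-Glo luminescence read-out after 1 h room-temperature kinase reaction with 10 μM ATP and 0.1 μg/ml MBP. Recombinant human HPK1 at 7.5 ng/μl; buffer 40 mM Tris pH 7.5, 20 mM MgCl2. Compounds serially diluted 5-fold over 10 points from 10 mM DMSO stock.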
# HPK1, sequence (Q92918 1-346 limits assumed): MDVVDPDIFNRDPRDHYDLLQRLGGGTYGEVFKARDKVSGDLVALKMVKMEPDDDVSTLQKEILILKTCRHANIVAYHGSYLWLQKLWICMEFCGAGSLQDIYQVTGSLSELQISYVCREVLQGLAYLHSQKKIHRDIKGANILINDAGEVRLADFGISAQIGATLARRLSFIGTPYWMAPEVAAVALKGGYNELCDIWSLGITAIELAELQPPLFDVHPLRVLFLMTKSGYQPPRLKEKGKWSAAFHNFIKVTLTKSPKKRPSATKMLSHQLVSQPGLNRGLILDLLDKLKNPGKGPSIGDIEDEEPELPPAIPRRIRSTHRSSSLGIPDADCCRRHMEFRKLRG
row,Structure (SMILES),IC50
1,"Cc1nn(C(C)C)c2ccc(NC(=O)c3ccc(=O)n(-c4c(F)cccc4F)n3)c(N3CC[C@@H](N)C3)c12 [Example 195, (R)-N-(4-(3-aminopyrrolidin-1-yl)-1-isopropyl-3-methyl-1H-indazol-5-yl)-1-(2,6-difluorophenyl)-6-oxo-1,6-dihydropyridazine-3-carboxamide]",< 100 nM
2,"N#Cc1ccncc1-c1ccc(NC(=O)c2ccc(=O)n(-c3c(F)cccc3F)n2)c(N2C[C@@H](N)C[C@H]2CO)c1 [Example 347, N-(2-((2S,4S)-4-amino-2-(hydroxymethyl)pyrrolidin-1-yl)-4-(4-cyanopyridin-3-yl)phenyl)-1-(2,6-difluorophenyl)-6-oxo-1,6-dihydropyridazine-3-carboxamide]",< 100 nM
3,"N#Cc1ccncc1-c1ccc(NC(=O)c2ccc(=O)n(-c3c(F)cccc3F)n2)c(N2CCC(F)(F)[C@@H](N)C2)c1 [Example 357, (S)-N-(2-(3-amino-4,4-difluoropiperidin-1-yl)-4-(4-cyanopyridin-3-yl)phenyl)-1-(2,6-difluorophenyl)-6-oxo-1,6-dihydropyridazine-3-carboxamide]",< 100 nM
4,"CC[C@@]1(N)CCN(c2c(NC(=O)c3ccc(=O)n(-c4c(F)cccc4F)n3)ccc3c2nc(C(C)C)n3C)C1 [Example 121, (R)-N-(4-(3-amino-3-ethylpyrrolidin-1-yl)-2-isopropyl-1-methyl-1H-benzo[d]imidazol-5-yl)-1-(2,6-difluorophenyl)-6-oxo-1,6-dihydropyridazine-3-carboxamide]",< 100 nM
5,"CC1(C)CN(c2c(NC(=O)c3ccc(=O)n(-c4c(F)cccc4F)n3)ccc3nn(C4(C(F)(F)F)CC4)cc23)C[C@@H]1N (single isomer, unassigned) [Example 314]",< 100 nM
6,"CC(C)c1nc2c(N3CC[C@@H](N)C3)c(NC(=O)c3ccc(=O)n(-c4c(F)cccc4F)n3)cc(F)c2n1C [Example 143, (R)—N-(4-(3-aminopyrrolidin-1-yl)-7-fluoro-2-isopropyl-1-methyl-1H-benzo[d]imidazol-5-yl)-1-(2,6-difluorophenyl)-6-oxo-1,6-dihydropyridazine-3-carboxamide]",< 100 nM
7,"COc1cccc(F)c1-c1cccc(C(=O)Nc2cc(F)ccc2N2C[C@H]3C[C@@H]2CN3)[n+]1[O-] [Example 55, 2-((2-((1R,4R)-2,5-diazabicyclo[2.2.1]heptan-2-yl)-5-fluorophenyl)carbamoyl)-6-(2-fluoro-6-methoxyphenyl)pyridine 1-oxide]",< 100 nM
8,"Cc1nc2c(N3CC[C@H](N)C3)c(NC(=O)c3ccnn(-c4c(F)cccc4F)c3=O)ccc2n1C1CC1 [Example 48, N-{4-[(35)-3-aminopyrrolidin-1-yl]-1-cyclopropyl-2-methyl-1,3-benzodiazol-5-yl}-2-(2,6-difluorophenyl)-3-oxopyridazine-4-carboxamide]",100 to 1000 nM
9,"C[C@@H]1CN(c2c(NC(=O)c3ccc(=O)n(-c4c(F)cccc4F)n3)ccc3nn(C45CC(C4)C5)cc23)C[C@@H]1N [Example 316, N-(4-((3R,4R)-3-amino-4-methylpyrrolidin-1-yl)-2-(bicyclo[1.1.1]pentan-1-yl)-2H-indazol-5-yl)-1-(2,6-difluorophenyl)-6-oxo-1,6-dihydropyridazine-3-carboxamide]",< 100 nM
10,"CC(C)n1ncc2c(N3C[C@@H]4NCCO[C@H]4C3)c(NC(=O)c3ccc(=O)n(-c4c(F)cccc4F)n3)ccc21 [Example 194, 1-(2,6-difluorophenyl)-N-(4-((4aS,7aS)-hexahydropyrrolo[3,4-b][1,4]oxazin-6(2H)-yl)-1-isopropyl-1H-indazol-5-yl)-6-oxo-1,6-dihydropyridazine-3-carboxamide]",< 100 nM
11,"CC(C)c1nc2c(N3CC[C@H](N)C3)c(NC(=O)c3ccc(=O)n(-c4c(F)cccc4F)n3)ccc2n1C [Example 132, (S)-N-(4-(3-aminopyrrolidin-1-yl)-2-isopropyl-1-methyl-1H-benzo[d]imidazol-5-yl)-1-(2,6-difluorophenyl)-6-oxo-1,6-dihydropyridazine-3-carboxamide]",< 100 nM
12,"C[C@H]1CN(c2c(NC(=O)c3ccc(=O)n(-c4c(F)cccc4F)n3)ccc3nn(C(C)(C)C)cc23)C[C@@H]1N [Example 238, N-(4-((3R,4S)-3-amino-4-methylpyrrolidin-1-yl)-2-(tert-butyl)-2H-indazol-5-yl)-1-(2,6-difluorophenyl)-6-oxo-1,6-dihydropyridazine-3-carboxamide]",< 100 nM
13,"C[C@@H]1CN(c2c(NC(=O)c3ccc(=O)n(-c4c(F)cccc4F)n3)ccc3nn(C4CC(F)(F)C4)cc23)C[C@@H]1N [Example 307, N-(4-((3R,4R)-3-amino-4-methylpyrrolidin-1-yl)-2-(3,3-difluorocyclobutyl)-2H-indazol-5-yl)-1-(2,6-difluorophenyl)-6-oxo-1,6-dihydropyridazine-3-carboxamide]",< 100 nM
14,"COc1cccc(F)c1-c1nccc(C(=O)Nc2ccc3c(nc(C)n3C)c2N2CC[C@H](N)C2)c1F [Example 10, N-(4-((S)-3-aminopyrrolidin-1-yl)-1,2-dimethyl-1H-benzo[d]imidazol-5-yl)-3-fluoro-2-(2-fluoro-6-methoxyphenyl)isonicotinamide]",< 100 nM
15,"CO[C@@H]1CN(c2c(NC(=O)c3ccc(=O)n(-c4c(F)cccc4F)n3)ccc3c2cnn3C(C)C)C[C@H]1N (stereo in doubt) [Example 200, N-(4-((3R,4R)-3-amino-4-methoxypyrrolidin-1-yl)-1-isopropyl-1H-indazol-5-yl)-1-(2,6-difluorophenyl)-6-oxo-1,6-dihydropyridazine-3-carboxamide]",< 100 nM
16,"COc1cccc(F)c1-c1cccc(C(=O)Nc2ccc3c(nc(C)n3C)c2N2C[C@@H]3C[C@H]2CN3)[n+]1[O-] [Example 60, 2-((4-((1S,4S)-2,5-diazabicyclo[2.2.1]heptan-2-yl)-1,2-dimethyl-1H-benzo[d]imidazol-5-yl)carbamoyl)-6-(2-fluoro-6-methoxyphenyl)pyridine 1-oxide]",< 100 nM
17,"CC(C)c1nc2c(N3CC[C@@H](N)C3)c(NC(=O)c3nn(-c4c(F)cccc4F)c(=O)cc3Cl)ccc2n1C [Example 120, (R)-N-(4-(3-aminopyrrolidin-1-yl)-2-isopropyl-1-methyl-1H-benzo[d]imidazol-5-yl)-4-chloro-1-(2,6-difluorophenyl)-6-oxo-1,6-dihydropyridazine-3-carboxamide]",< 100 nM
18,"COCCn1ncc2c(N3CCC[C@@H](N)C3)c(NC(=O)c3ccc(=O)n(-c4c(F)cccc4F)n3)cc(F)c21 [Example 286, (R)-N-(4-(3-aminopiperidin-1-yl)-7-fluoro-1-(2-methoxyethyl)-1H-indazol-5-yl)-1-(2,6-difluorophenyl)-6-oxo-1,6-dihydropyridazine-3-carboxamide]",< 100 nM
19,"C[C@@H]1CN(c2c(NC(=O)c3ccc(=O)n(-c4c(F)cccc4F)n3)ccc3c2cnn3[C@H]2CCCOC2)C[C@@H]1N [Example 253, N-(4-((3R,4R)-3-amino-4-methylpyrrolidin-1-yl)-1-((S)-tetrahydro-2H-pyran-3-yl)-1H-indazol-5-yl)-1-(2,6-difluorophenyl)-6-oxo-1,6-dihydropyridazine-3-carboxamide]",< 100 nM
